From patent US6552066B1, “Protein tyrosine kinase inhibitors for treating osteoarthritis” (priority 1995, dated 2003) come the findings set out here.

Format in all cases: cell-based
In one experiment the test system is prostromelysin protein. Kind of experiment: Western immunoblot of IL-1-induced prostromelysin protein in primary bovine chondrocytes. The following applies: for effect on IL-1α-induced prostromelysin protein levels: repeat experiment; for effect on IL-1-induced prostromelysin levels: first experiment. Here is the method:
Isolation and culturing of primary bovine articular chondrocytes, as well as addition of inhibitors were performed as indicated above in Example 4. The following protein kinase inhibitors were tested: 1) Protein kinase A (PKA) inhibitors; 0.5 μM H88 (Seikagaku Corp.), 0.5 μM H89 (Seikagaku Corp.), 2) Protein kinase C (PKC) inhibitors; 0.5 μM Calphostin C (Calbiochem), 1.0 μM Chelerythrine (Calbiochem); 3) CA^2+/Calmodulin Kinase II inhibitor; 5.0 μM KN93 (Seikagaku Corp.); 4) Protein tyrosine kinase (PTK) inhibitors; 50 μM Genistein (Calbiochem), 10 μM Herbimycin A (Calbiochem).
After the 24 hour IL-1α incubation, the media of each sample was measured and collected on ice in the presence of the protease inhibitors EGTA (5 mM), Pefabloc (1 mM), pepstatin (1 μg/ml), and NEM (5 mM). Media were concentrated approximately 40 fold using a Centriprep-10 ultrafiltration device (Amicon). Concentrated samples were normalized to equivalent starting concentrations (cell number/culture volume), were reduced in the presence of SDS Laemmli sample buffer and electrophoresed in a precast 12% polyacrylamide gel (BioRad). Protein samples were then electroblotted to nitrocellulose and immunodetected using a primary antibody that recognizes both prostromelysin and stromelysin. Immunoreactive bands were visualized with the ABC detection (Pierce) and an NBT/BCIP color reagent (Sigma).
A repeat of the Western immunoblotting experiment using antistromelysin antibodies was performed. Furthermore, additional inhibitors from four enzyme families were examined: 1) Protein tyrosine kinase (PTK) inhibitors: 1 μM Tyrphostin AG 1296 (Calbiochem), 50 μM Tyrphostin A25 (AG 82) (Calbiochem), 50 μM Tyrphostin AG 126 (Calbiochem); 2) Guanylate cyclase inhibitor; 10 μM LY-83583 (Calbiochem); 3) Casein kinase I inhibitor; 20 μM CKI-7 (Seikagaku Corp.); and 4) Protein kinase G (PKG) and PKA inhibitor; 5.0 μM H89.

For the next experiment, the system named is stromelysin mRNA. In words: Northern blot of IL-1-induced stromelysin mRNA in primary bovine chondrocytes. Conditions: 2 h preincubation, IL-1α 1 ng/ml 24 hours. On the procedure:
The isolation of cartilage and the enzymatic degradation of cartilage was carried out as described in Example 1.
Chondrocytes were recovered by addition of an equal volume of DMEM/F12 supplemented with 10% fetal bovine serum (FBS) to neutralize enzymes, filtration through a 70μm nylon Cell Strainer (Falcon), and centrifugation at 1000×g for ten minutes at room temperature. Chondrocytes were seeded in T-150 plates at 5×10^4 cells/cm^2 using 1:1 DMEM/F12, 10% FBS, 1% antibiotic solution (penicillin, streptomycin, fungizone: GIBCO/BRL), and incubated at 37° C., 5% CO2. Cells were refed with DMEM/F12 plus 10% FBS on days 4, 7, and 10. On day 11, test cultures (except for the+interleukin 1α control) were rinsed in phosphate buffered saline (PBS), and preincubated for 2 hours with 5 ml of serum-free DMEM/F12 containing one of the following protein kinase inhibitors:
1) Protein kinase A (PKA) inhibitors; 0.5 μM H88 (Seikagaku Corp.), 0.5 μMH89 (Seikagaku Corp.); 2) Protein kinase G (PKG) and PKA inhibitor; 5.0 μM H89; 3) Protein kinase C. (PKC) inhibitors; 0.5 μM Calphostin C (Calbiochem), 1.0 μM chelerythrine (Calbiochem); 4) CA^2+/Calmodulin Kinase II inhibitor; 5.0 μM KN93 (Seikagaku Corp.); 5) Protein tyrosine kinase (PTK) inhibitors; 50 μM Genistein (Calbiochem), 10 μM Herbimycin A (Calbiochem), 50 μM Tyrphostin A25 (AG 82) (Calbiochem), 50 μm Tyrphostin AG 126 (Calbiochem), 50 μM Tyrphostin B56 (AG 556) (Calbiochem), 20 μM DAPH (Calbiochem).
Recombinant human interleukin 1 α (IL-1α) (R & D Systems) at 1 ng/ml was then added to all cultures (except the IL-1α control) for 24 hours in serum-free DMEM/F12 containing 1% antibiotic solution.
RNA on the Northern blot was fixed to the membrane by baking at 80° C. for 30 minutes.
Prehybridization (1.5 hours) and hybridization (overnight) of the Northern blot with the radioactive probes were performed in 50% formamide, 1×GIBCO/BRL hybridization solution, 0.1% SDS, and 10mM monobasic sodium phosphate, at 42° C. The blot was successively washed two times in 1×SSC/0.1% SDS (15 minutes/wash at room temperature), and two times in 0.2×SSC/0.1% SDS (30 minutes/wash at 55° C.). The blot was allowed to air dry, and was exposed to X-ray film, with intensifying screen, overnight at −70° C.

The test system of experiment [1] is aggrecanase activity in bovine cartilage explants. In words: Bovine cartilage explant assay without added plasminogen (IL-1-induced aggrecanase degradation). Conditions: no added plasminogen. An excerpt:
The assay described in Example 2 can be carried out with and without added plasminogen. With plasminogen, the active forms of the metalloproteinases (MMPs) and plasmin were generated. It is believed that MMPs, “aggrecanase” and plasmin degraded the cartilage explant in this assay. […] Therefore, in the absence of plasminogen, cartilage degradation occurred primarily as a result of “aggrecanase” activity.

Setting [2] is: concentration not printed in Example 5.

Take `O=C1NC(=O)c2cc(Nc3ccccc3)c(Nc3ccccc3)cc21` [DAPH, 4,5-dianilinophthalimide]: the “effect on IL-1α-induced prostromelysin protein levels” value in the experiment on prostromelysin protein (setting [2]) is on record as “dramatic reduction”. In the experiment on stromelysin mRNA (20 μM), the “inhibition of IL-1-induced upregulation of stromelysin mRNA levels” value (shortened to “inhibition … of stromelysin mRNA levels”) was “Total inhibition”.

For the compound `O=c1c(-c2ccc(O)cc2)coc2cc(O)cc(O)c12` [Genistein], the inhibition at 50 µM in experiment [1] (Bos taurus, 50 μM, read-out: inhibition of release of 35S-labelled proteoglycan) came to 37%. Also, in the experiment on prostromelysin protein (50 μM), the “effect on IL-1-induced prostromelysin levels” value is “completely inhibited” and the “effect on IL-1α-induced prostromelysin protein levels” value is recorded as “dramatic reduction”. For the same compound, in the experiment with stromelysin mRNA (50 μM), the “inhibition … of stromelysin mRNA levels” value is “Total inhibition”.

On to `CO[C@H]1[C@@H](OC)C[C@H](C)[C@@H](OC)C2=CC(=O)C=C(NC(=O)/C(C)=C/C=C\[C@H](OC)[C@@H](OC(N)=O)/C(C)=C/[C@@H]1C)C2=O` [Herbimycin A], for which the inhibition at 0.25 µM in experiment [1] (Bos taurus, 0.25 μM, read-out: inhibition of release of 35S-labelled proteoglycan) was 55%. The inhibition at 0.5 µM in experiment [1] (Bos taurus, 0.5 μM, read-out: inhibition of release of 35S-labelled proteoglycan) is 63%. The inhibition at 1 µM in experiment [1] (Bos taurus, 1 μM, read-out: inhibition of release of 35S-labelled proteoglycan) turned out to be 78%. In the experiment on prostromelysin protein (10 μM), the “effect on IL-1-induced prostromelysin levels” value is listed as “completely inhibited” and the “effect on IL-1α-induced prostromelysin protein levels” value is reported as “dramatic reduction”. Further, in the experiment with stromelysin mRNA (10 μM), the “inhibition … of stromelysin mRNA levels” value is on record as “Total inhibition”.

Turning to `N#CC(C#N)=Cc1cc(O)c(O)c(O)c1` [Tyrphostin AG 82], in experiment [1] (50 μM), the “inhibition of release of 35S-labelled proteoglycan” value stood at 31%. Moreover, the “effect on IL-1α-induced prostromelysin protein levels” value with prostromelysin protein (50 μM) is “slight inhibitory activity”. The “inhibition … of stromelysin mRNA levels” value with stromelysin mRNA (50 μM) is “no effect”.

For the compound `N#CC(C#N)=Cc1ccc([N+](=O)[O-])c(O)c1` [Tyrphostin AG 126], the “inhibition of release of 35S-labelled proteoglycan” value in experiment [1] (50 μM) is recorded as “no effect”. Moreover, the “effect on IL-1α-induced prostromelysin protein levels” value in the experiment on prostromelysin protein (50 μM) was “no effect”. Also, the “inhibition … of stromelysin mRNA levels” value in the experiment on stromelysin mRNA (50 μM) is listed as “no effect”.

In the case of `N#C/C(=C\c1ccc(O)c(O)c1)C(=O)NCCCCc1ccccc1` [Tyrphostin AG 556], the “effect on IL-1α-induced prostromelysin protein levels” value with prostromelysin protein (setting [2]) is “dramatic reduction”. Further, in the experiment with stromelysin mRNA (50 μM), the “inhibition … of stromelysin mRNA levels” value is “Total inhibition”.
